# Measured values published in patent publication US8435976B2, “4-substituted pyridin-3-yl-carboxamide compounds and methods of use” (F. Hoffmann-La Roche, priority 2009, dated 2013).
# Assays:
# BaF3 PIM1 cells = BaF3 PIM1 cells (Homo sapiens, UniProt P11309); assay: BaF3 PIM1 cell proliferation (Cell Titer Glo); assay type: cell-based; details: incubated overnight; read-out: Prolif BaF3_PIM1 (IC50)
# Procedure: (§1) BaF3 parental line was obtained from the DSMZ repository. BaF3 lines transfected with PIM1 or PIM2 were generated. Mouse IL-3 was purchased from R&D Systems. G418 was purchased from Clontech. Media for BaF3 parental line contained RPMI, 10% FBS, 2 mM L-Glutamine, 2 ng/mL mIL-3. Media for BaF3 PIM1 & 2 lines contained RPMI, 10% FBS, 2 mM L-Glutamine, […]. Media for MM1.S line contained RPMI, 10% FBS, 2 mM L-Glutamine.
# (§2) BaF3 parental cells, BaF3 PIM1 cells, BaF3 PIM2 cells, and MM1.S cells were seeded at 2 k/well, 5 k/well, 5 k/well, and 10 k/well respectively, in a 384-well plate, at 45 μL/well. Test compound was added at 5 μL/well. BaF3 cells (parental and transfected) were incubated overnight, while MM1.S cells were incubated for 72 hours at 37° C., 5% CO2. Cell Titer Glo Reagent (Promega) was added at 50 μL/well, the plates were incubated for 30 minutes, and their luminescence read on an HT Analyst. IC50/EC50 values for the test compound were calculated.
# MM1.S cells = assay: MM1.S cell proliferation, 72 hours (Cell Titer Glo); assay type: cell-based; details: Homo sapiens, 72 hours, read-out: Prolif MM1S ATP (EC50)
# Procedure: as §1, §2
# PIM1 = molecular target: T1, PIM1 (Homo sapiens, UniProt P11309); assay: Pim-1 kinase enzymatic assay (Caliper LC3000, FAM-Pimtide substrate); assay type: biochemical; details: 20 pM PIM1, 10 μM ATP, 90 minutes; read-out: PIM1 LC3K (Ki)
# T1 construct: made in house
# T1 sequence (P11309 whole entry): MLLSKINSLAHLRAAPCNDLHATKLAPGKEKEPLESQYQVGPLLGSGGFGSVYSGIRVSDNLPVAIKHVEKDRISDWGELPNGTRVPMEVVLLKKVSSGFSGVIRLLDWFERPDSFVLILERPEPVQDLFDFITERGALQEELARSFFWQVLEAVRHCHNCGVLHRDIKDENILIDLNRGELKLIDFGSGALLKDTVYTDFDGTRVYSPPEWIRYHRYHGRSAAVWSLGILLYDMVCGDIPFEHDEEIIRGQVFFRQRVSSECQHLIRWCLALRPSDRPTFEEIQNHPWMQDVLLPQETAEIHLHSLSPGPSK
# Procedure: (§3) Reaction Buffer contained 10 mM HEPES, pH 7.2, 10 mM MgCl2, 0.01% Tween 20, 2 mM DTT.
# (§4) PIM reactions were carried out in a final volume of 10 μL per well in a 384-well plate. […] The separation of product and substrate was optimized by choosing voltages and pressure using Caliper's Optimizer software (Hopkinton, Mass.). The separation conditions used a downstream voltage of −500V, an upstream voltage of −2150V, and a screening pressure of −1.2 psi. […] Substrate conversion was calculated from the electrophoregram using HTS Well Analyzer software (Caliper Life Sciences, Hopkinton, Mass.). Ki values for the test compound were calculated.
# PIM3 = molecular target: T2, PIM3 (Homo sapiens, UniProt Q86V86); assay: Pim-3 kinase enzymatic assay (Caliper LC3000, FAM-Pimtide substrate); assay type: biochemical; details: 55 pM PIM3, 10 μM ATP, 90 minutes; read-out: PIM3 LC3K (Ki)
# T2 construct: made in house
# Procedure: as §3, §4
# PIM2 = molecular target: T3, PIM2 (Homo sapiens, UniProt Q9P1W9); assay: Pim-2 kinase enzymatic assay (Caliper LC3000, FAM-Pimtide substrate); assay type: biochemical; details: 50 pM PIM2, 10 μM ATP, 90 minutes; read-out: PIM2 LC3K (Ki)
# T3 construct: made in house
# T3 sequence (Q9P1W9 whole entry): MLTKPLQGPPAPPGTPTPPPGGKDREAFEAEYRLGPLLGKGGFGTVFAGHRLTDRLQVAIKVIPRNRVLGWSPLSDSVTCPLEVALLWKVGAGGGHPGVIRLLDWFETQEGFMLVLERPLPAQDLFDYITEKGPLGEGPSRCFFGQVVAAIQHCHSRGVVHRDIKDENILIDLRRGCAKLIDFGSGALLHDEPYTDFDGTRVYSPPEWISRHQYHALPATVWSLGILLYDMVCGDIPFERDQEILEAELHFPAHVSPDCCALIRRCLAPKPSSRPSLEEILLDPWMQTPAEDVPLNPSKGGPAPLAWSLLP
# Procedure: as §3, §4
# BaF3 PIM2 cells = BaF3 PIM2 cells (Homo sapiens, UniProt Q9P1W9); assay: BaF3 PIM2 cell proliferation (Cell Titer Glo); assay type: cell-based; details: incubated overnight; read-out: Prolif BaF3_PIM2 (IC50)
# Sequence of BaF3 PIM2 cells (Q9P1W9 whole entry, change not shown): as the sequence (Q9P1W9 whole entry) above
# Procedure: as §1, §2
# Sequence of BaF3 PIM1 cells (P11309 whole entry, change not shown): as the sequence (P11309 whole entry) above
Structure (SMILES),GI50 (BaF3 PIM1 cells),EC50 (MM1.S cells),Ki (PIM1),Ki (PIM3),Ki (PIM2),GI50 (BaF3 PIM2 cells)
"Nc1sc(-c2c(F)cccc2F)nc1C(=O)Nc1cnccc1N1CCC[C@H](N)C1 (single isomer, unassigned) [Example 25]",1500 nM,1500 nM,–,–,–,–
"Nc1sc(-c2ccccc2F)nc1C(=O)Nc1cnccc1N1CCC[C@H](N)C1 [Example 1, (S)-5-amino-N-(4-(3-aminopiperidin-1-yl)pyridin-3-yl)-2-(2-fluorophenyl)thiazole-4-carboxamide]",33.2 nM,108 nM,0.0224 nM,0.0156 nM,0.0671 nM,1400 nM
"Nc1sc(-c2ccccc2Cl)nc1C(=O)Nc1cnccc1N1CCC[C@H](N)C1 [Example 2, (S)-5-amino-N-(4-(3-aminopiperidin-1-yl)pyridin-3-yl)-2-(2-chlorophenyl)thiazole-4-carboxamide]",67.2 nM,218 nM,0.0355 nM,0.0205 nM,0.126 nM,2000 nM
"Nc1sc(-c2cc(Br)ccc2F)nc1C(=O)Nc1cnccc1N1CCC[C@H](N)C1 [Example 4, (S)-5-amino-N-(4-(3-aminopiperidin-1-yl)pyridin-3-yl)-2-(5-bromo-2-fluorophenyl)thiazole-4-carboxamide]",55.8 nM,160 nM,0.023 nM,0.026 nM,0.154 nM,> 2500 nM
"Nc1sc(-c2cc(Br)ccc2Cl)nc1C(=O)Nc1cnccc1N1CCC[C@H](N)C1 [Example 5, (S)-5-amino-N-(4-(3-aminopiperidin-1-yl)pyridin-3-yl)-2-(5-bromo-2-chlorophenyl)thiazole-4-carboxamide]",300 nM,1500 nM,0.044 nM,0.05 nM,0.493 nM,2800 nM
"Nc1sc(-c2cccc(Br)c2)nc1C(=O)Nc1cnccc1N1CCC[C@H](N)C1 [Example 6, (S)-5-amino-N-(4-(3-aminopiperidin-1-yl)pyridin-3-yl)-2-(3-bromophenyl)thiazole-4-carboxamide]",117 nM,595 nM,0.063 nM,0.032 nM,0.379 nM,1400 nM
"Nc1sc(-c2ccccc2)nc1C(=O)Nc1cnccc1N1CCC[C@H](N)C1 [Example 7, (S)-5-amino-N-(4-(3-aminopiperidin-1-yl)pyridin-3-yl)-2-phenylthiazole-4-carboxamide]",73 nM,141 nM,0.091 nM,0.0215 nM,0.203 nM,3100 nM
"Cc1nc(C(=O)Nc2cnccc2N2CCC[C@H](N)C2)c(N)s1 [Example 8, (S)-5-amino-N-(4-(3-aminopiperidin-1-yl)pyridin-3-yl)-2-methylthiazole-4-carboxamide]",713 nM,> 20000 nM,3.47 nM,9.53 nM,16.3 nM,> 20000 nM
"Nc1sc(-c2ccccn2)nc1C(=O)Nc1cnccc1N1CCC[C@H](N)C1 [Example 9, (S)-5-amino-N-(4-(3-aminopiperidin-1-yl)pyridin-3-yl)-2-(pyridin-2-yl)thiazole-4-carboxamide]",68.8 nM,89.7 nM,0.084 nM,0.014 nM,0.16 nM,1900 nM
"Nc1scnc1C(=O)Nc1cnccc1N1CCC[C@H](N)C1 [Example 10, (S)-5-amino-N-(4-(3-aminopiperidin-1-yl)pyridin-3-yl)thiazole-4-carboxamide]",3600 nM,> 20000 nM,36.7 nM,24 nM,51.2 nM,–
"Nc1sc(-c2cccnc2)nc1C(=O)Nc1cnccc1N1CCC[C@H](N)C1 [Example 11, (S)-5-amino-N-(4-(3-aminopiperidin-1-yl)pyridin-3-yl)-2-(pyridin-3-yl)thiazole-4-carboxamide]",607 nM,9200 nM,0.502 nM,0.166 nM,0.885 nM,13200 nM
"Nc1sc(-c2cccc(Cl)c2)nc1C(=O)Nc1cnccc1N1CCC[C@H](N)C1 [Example 13, (S)-5-amino-N-(4-(3-aminopiperidin-1-yl)pyridin-3-yl)-2-(3-chlorophenyl)thiazole-4-carboxamide]",–,> 20000 nM,0.102 nM,0.04 nM,0.403 nM,–
"Nc1sc(-c2ccccc2)nc1C(=O)Nc1cccnc1 [Example 14, 5-amino-2-phenyl-N-(pyridin-3-yl)thiazole-4-carboxamide]",–,> 20000 nM,36.7 nM,9.25 nM,195 nM,–
"Nc1sc(-c2cn3ccccc3n2)nc1C(=O)Nc1cnccc1N1CCC[C@H](N)C1 [Example 19, (S)-5-amino-N-(4-(3-aminopiperidin-1-yl)pyridin-3-yl)-2-(imidazo[1,2-a]pyridin-2-yl)thiazole-4-carboxamide]",581 nM,3200 nM,0.735 nM,–,3.55 nM,> 20000 nM
"Nc1[nH]c(-c2ccccc2)nc1C(=O)Nc1cnccc1N1CCC[C@H](N)C1 [Example 20, (S)-5-amino-N-(4-(3-aminopiperidin-1-yl)pyridin-3-yl)-2-phenyl-1H-imidazole-4-carboxamide]",–,–,1200 nM,496 nM,4900 nM,–
"Nc1sc(-c2ccncc2)nc1C(=O)Nc1cnccc1N1CCC[C@H](N)C1 [Example 33, (S)-5-amino-N-(4-(3-aminopiperidin-1-yl)pyridin-3-yl)-2-(pyridin-4-yl)thiazole-4-carboxamide]",410 nM,3500 nM,0.6 nM,–,2.51 nM,13300 nM
"CC(C)c1nc(C(=O)Nc2cnccc2N2CCC[C@H](N)C2)c(N)s1 [Example 36, (S)-5-amino-N-(4-(3-aminopiperidin-1-yl)pyridin-3-yl)-2-isopropylthiazole-4-carboxamide]",562 nM,14000 nM,2.18 nM,3.77 nM,8.69 nM,–
"Nc1sc(C2CCCCC2)nc1C(=O)Nc1cnccc1N1CCC[C@H](N)C1 [Example 37, (S)-5-amino-N-(4-(3-aminopiperidin-1-yl)pyridin-3-yl)-2-cyclohexylthiazole-4-carboxamide]",2200 nM,2100 nM,1.14 nM,–,0.635 nM,–
"Nc1sc(Cc2ccccc2)nc1C(=O)Nc1cnccc1N1CCC[C@H](N)C1 [Example 38, (S)-5-amino-N-(4-(3-aminopiperidin-1-yl)pyridin-3-yl)-2-benzylthiazole-4-carboxamide]",3200 nM,11900 nM,3.73 nM,12.7 nM,33.8 nM,–
"N[C@H]1CCCN(c2ccncc2NC(=O)c2csc(-c3c(F)cccc3F)n2)C1 [Example 46, (S)-N-(4-(3-aminopiperidin-1-yl)pyridin-3-yl)-2-(2,6-difluorophenyl)thiazole-4-carboxamide]",–,4800 nM,–,–,–,–
"N[C@H]1CCCN(c2ccncc2NC(=O)c2csc(-c3ccccc3)n2)C1 [Example 48, (S)-N-(4-(3-aminopiperidin-1-yl)pyridin-3-yl)-2-phenylthiazole-4-carboxamide]",1400 nM,8000 nM,1.33 nM,0.487 nM,6.84 nM,–
"Nc1sc(Cc2ccccc2)nc1C(=O)Nc1cnccc1N1CCC[C@H](NC(=O)C(F)(F)F)C1 [Example 49, (S)-5-amino-2-benzyl-N-(4-(3-(2,2,2-trifluoroacetamido)piperidin-1-yl)pyridin-3-yl)thiazole-4-carboxamide]",4000 nM,> 20000 nM,29.7 nM,91.2 nM,259 nM,–
"Nc1sc(-c2c(F)cccc2Cl)nc1C(=O)Nc1cnccc1N1CCC[C@H](N)C1 [Example 55, (S)-5-amino-N-(4-(3-aminopiperidin-1-yl)pyridin-3-yl)-2-(2-chloro-6-fluorophenyl)thiazole-4-carboxamide]",–,158 nM,0.032 nM,0.028 nM,0.12 nM,–
"Nc1sc(C2CCNC2)nc1C(=O)Nc1cnccc1N1CCCC(N)C1 (stereo not drawn) [Example 64, 5-amino-N-(4-(3-aminopiperidin-1-yl)pyridin-3-yl)-2-(pyrrolidin-3-yl)thiazole-4-carboxamide]",–,–,21.6 nM,18 nM,57.7 nM,–
